Source: article PMC7510464, “The wasp venom antimicrobial peptide polybia‐CP and its synthetic derivatives display antiplasmodial and anticancer properties” (Bioengineering & Translational Medicine, 2020)
No end group written: not given here.

Legend:
[1] = test system: human mammary cells (MCF-7); assay: MTT assay, MCF-7 cells; assay type: cell-based; settings: 570 nm, method gives serial dilutions 0.09–50 μmol L^−1, 2 and 24 hr (time for IC50 not stated), triplicate, NO = not observed, read-out: IC50, concentration of peptide needed for killing 50% of MCF-7
Procedure: (§1) Human mammary adenocarcinoma (MCF‐7) cells were maintained in RPMI 1640 medium supplemented with 10% heat inactivated fetal bovine serum and 100 μg ml^−1 penicillin/10 μg ml^−1 streptomycin. While hepatocellular carcinoma (Hep G2) cells, neuroblastoma (SHSY‐5Y) cells and melanoma (SK‐mel‐147) cells were maintained in RPMI 1640 medium supplemented with 10% heat inactivated fetal bovine serum and 100 μg ml^−1 penicillin/10 μg ml^−1 streptomycin. One day before the assays, the cells were plated in 96‐well microtiter plate with a density of 2.0 × 10^4 cells/well at 37°C and 5% CO2. On the next day, cells were treated with peptides serial dilutions (0.09–50 μmol L^−1), incubated in individual microtiter plates for 2 and 24 hr and MTT assays were performed after treatment. Human breast epithelial cells MCF‐10A (ATCC) were maintained in mixture of Dulbecco's modified Eagle's medium and Ham's F12 nutrient mixture supplemented with 5% inactivated horse serum, 10 μg ml^−1 insulin, 0.02 μg ml^−1 human epidermal growth factor, 0.5 μg ml^−1 hydrocortisone, 0.10 μg ml^−1 choleric toxin, 100 U ml^−1 penicillin, and 100 μg ml^−1 streptomycin. […]
(§2) Briefly, MTT (Sigma–Aldrich) was dissolved in water and filtered to make up a 5 μg ml^−1 solution. […] Finally, the microplates were read on an ELISA reader at 570 nm. […]

[2] = test system: human embryonic kidney (HEK293) cells; settings: at 25 μmol L^−1; cited from earlier work
Description: The inhibitory activities observed against cancer cell lines are at the same range of concentrations reported for antimicrobial activity ^6 (Figure 2b) for this family of peptides.

[3] = test system: neuroblastoma cell (SH-SY5Y); assay: MTT assay, SH-SY5Y cells; assay type: cell-based; settings: 570 nm, method gives serial dilutions 0.09–50 μmol L^−1, 2 and 24 hr (time for IC50 not stated), triplicate, NO = not observed, read-out: IC50, concentration of peptide needed for killing 50% of SH-SY5Y
Procedure: as §1, §2

[4] = test system: carcinoma cells of human liver (HepG2); assay: MTT assay, HepG2 cells; assay type: cell-based; settings: 570 nm, method gives serial dilutions 0.09–50 μmol L^−1, 2 and 24 hr (time for IC50 not stated), triplicate, NO = not observed, read-out: IC50, concentration of peptide needed for killing 50% of HepG2
Procedure: as §1, §2

[5] = test system: Plasmodium gallinaceum sporozoites; assay: Effect of peptides on salivary gland-derived P. gallinaceum sporozoites (membrane integrity, propidium iodide fluorescence); assay type: cell-based; settings: peptides 0.39–6.25 μmol L^−1, 9000 sporozoites in 50 μl PBS, 37°C, 1 hr, fluorescence microscopy, three independent replicates
Procedure: To assess the antiplasmodial activity of Pol‐CP‐NH2 and its derivatives, the molecules were incubated with Plasmodium gallinaceum sporozoites. The avian malaria parasite, P. gallinaceum, was chosen as the plasmodium model for this study because it presents lower risk and it is highly similar ^27 , ^28 to existing Plasmodium falciparum models responsible for human malaria. ^29
FIGURE 2 Antiplasmodial activity of polybia‐CP and derivatives in vitro. […] In red, we highlight the conditions at which the peptides were not active against the Plasmodium sporozoites. Experiments were performed in three independent replicates with three repetitions for each condition
Nine thousand P. gallinaceum mature sporozoites were pulled from the salivary glands of A. aegypti and incubated in 50 μl of PBS solution, with 40 μmol L^−1 digitonin (positive control), 0.39–6.25 μmol L^−1 peptides or negative control (PBS solution), at 37°C for 1 hr. Cell membrane integrity was then observed using a Carl Zeiss inverted fluorescence microscope (model Observer Axio Vision A.1) coupled to an image capture Zeiss AxioCam HR digital camera (1,300 × 1,030 pixels resolution and 8‐bit quantization) after addition of 1 μl of the propidium iodide aqueous solution (200 μmol L^−1) in […] of total solution volume. Images were obtained using a ×40 objective lens and a green filter effect in red. […]

Substance	IC50 [1] [µM]	toxicity against HEK293 cells [2]	IC50 [3] [µM]	IC50 [4] [µM]	antiplasmodial activity (fluorescent sporozoites, membrane disrupted) [5]
ILGTILGLLKSL-NH2 [Pol-CP-NH2, Ile‐Leu‐Gly‐Thr‐Ile‐Leu‐Gly‐Leu‐Leu‐Lys‐Ser‐Leu‐NH2]	200	one of the most toxic AMPs of the polybia‐CP family	–	–	–
ILGKILGLLKSL-NH2 [[Lys]^4-Pol-CP-NH2]	200	–	> 50	> 50	most active ones against Plasmodium
